The values below come from patent publication US7700618B2 (Pfizer Inc, priority 2006, dated 2010).

The target in this assay is T1, Human CB2 (Homo sapiens, UniProt P34972).
T1 construct: expressed in transfected cells; host or cells: CHO-K1 (Chinese hamster ovary K1) cells
The experiment in a line: Agonist-induced cAMP change in human CB2 transfected CHO-K1 cells. Particulars: forskolin 5 μM stimulated cAMP; for EC50: 30 min 37° C. It is filed as cell-based. The method, then:
Agonist-induced cAMP Change in Human CB2 Transfected CHO-K1 Cells
Human CB2 transfected Chinese hamster ovary-K1 (CHO-K1) cells were established and grown to 60-80% confluence. The medium was changed to F-12 medium containing 10% dialysed FBS, and the cells were incubated overnight. On the day of the assay, the cells were harvested with PBS/1 mM EDTA, centrifuged and washed with PBS. Cell pellets were resuspended in the incubation buffer (F-12 medium, 20 mM HEPES, 1 mM IBMX, 0.1 mM Ro-20-1724) at the concentration of 1×10^5 cells/ml and pre-incubated for 15 min at room temperature. The agonist samples were diluted from 10 mM stock solution in DMSO and dispensed into 96-well half-area plates (12.5 μl/well) with assay buffer (F-12, 20 mM HEPES). The reaction was initiated by adding the cells (25 μl/well) into the well containing forskolin (12.5 μL/well, final 5 μM) and diluted compounds. After incubation for 30 minutes at 37° C., cAMP-XL665 conjugated, and then the anti-cAMP-cryptase conjugate was added to the lysate (25 μl/well each). After further incubation for 60 minutes at room temperature, measurements were made on the Wallac 1420 ARVOsx multilabel counter (Excitation 320 nm, Emission 665 nm/620 nm, delay time 50 μs, window time 400 μs). Data analysis was made based on the ratio of fluorescence intensity of each well at 620 nm and 665 nm. The equation “sigmoldal dose-response” was used for the determination of EC50 and Emax values.

T1 sequence (P34972 whole entry): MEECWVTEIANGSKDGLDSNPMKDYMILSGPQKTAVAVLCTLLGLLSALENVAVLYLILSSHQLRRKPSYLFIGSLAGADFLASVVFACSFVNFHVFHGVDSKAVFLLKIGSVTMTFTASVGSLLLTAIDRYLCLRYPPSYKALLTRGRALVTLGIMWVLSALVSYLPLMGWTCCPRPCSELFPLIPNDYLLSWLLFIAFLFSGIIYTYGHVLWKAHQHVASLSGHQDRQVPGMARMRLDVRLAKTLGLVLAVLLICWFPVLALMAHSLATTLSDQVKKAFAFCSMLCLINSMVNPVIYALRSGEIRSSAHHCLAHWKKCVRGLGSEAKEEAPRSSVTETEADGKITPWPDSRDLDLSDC

As for `CC(C)(C)Cc1nc2cc(S(=O)(=O)C(C)(C)C(N)=O)ccc2n1CC1CC1` [Example 1, 2-{[1-(Cyclopropylmethyl)-2-(2,2-dimethylpropyl)-1H-benzimidazol-5-yl]sulfonyl}-2-methylpropanamide], the Emax turned out to be 118% and the EC50 was 0.91 nM.

`CC(C)(C)Cc1nc2cc(S(=O)(=O)C3(C(N)=O)CC3)ccc2n1CC1CC1` [Example 2, 1-{[1-(Cyclopropylmethyl)-2-(2,2-dimethylpropyl)-1H-benzimidazol-5-yl]sulfonyl}cyclopropanecarboxamide] had an Emax of 160% and an EC50 of 0.15 nM.

For the compound `CC(C)(C)Cc1nc2cc(S(=O)(=O)C3(C(N)=O)CCC3)ccc2n1CC1CC1` [Example 3, 1-{[1-(Cyclopropylmethyl)-2-(2,2-dimethylpropyl)-1H-benzimidazol-5-yl]sulfonyl}cyclobutanecarboxamide], the maximal response (Emax) is 121% and the response was half-maximal at 0.45 nM (EC50).

Take `CC(C)(C)Cc1nc2cc(S(=O)(=O)C3(C(N)=O)CCOCC3)ccc2n1CC1CC1` [Example 4, 4-{[1-(Cyclopropylmethyl)-2-(2,2-dimethylpropyl)-1H-benzimidazol-5-yl]sulfonyl}tetrahydro-2H-pyran-4-carboxamide]: the Emax was 114% and the EC50 stood at 1.31 nM.

As for `CC(C)(C)Cc1nc2cc(S(=O)(=O)C(C)(C)C(N)=O)cnc2n1CC1CC1` [Example 5, 2-{[3-(Cyclopropylmethyl)-2-(2,2-dimethylpropyl)-3H-imidazo[4,5-b]pyridin-6-yl]sulfonyl}-2-methylpropanamide], the Emax amounted to 118% and the EC50 amounted to 5.53 nM.

On to `CC(C)(C)Cc1nc2cc(S(=O)(=O)C(C)(C)C(=O)N3CCOCC3)ccc2n1CC1CC1` [Example 6, 1-(Cyclopropylmethyl)-5-[(1,1-dimethyl-2-morpholin-4-yl-2-oxoethyl)sulfonyl]-2-(2,2-dimethylpropyl)-1H-benzimidazole], for which the Emax came to 136% and the EC50 was 2.96 nM.

In turn, `CN(C)C(=O)C(C)(C)S(=O)(=O)c1ccc2c(c1)nc(CC(C)(C)C)n2CC1CC1` [Example 7, 2-{[1-(Cyclopropylmethyl)-2-(2,2-dimethylpropyl)-1H-benzimidazol-5-yl]sulfonyl}-N,N,2-trimethylpropanamide] displayed an Emax of 141% and an EC50 of 1.34 nM.

`CNC(=O)C(C)(C)S(=O)(=O)c1ccc2c(c1)nc(CC(C)(C)C)n2CC1CC1` [Example 8, 2-{[1-(Cyclopropylmethyl)-2-(2,2-dimethylpropyl)-1H-benzimidazol-5-yl]sulfonyl}-N,2-dimethylpropanamide]: the Emax worked out at 129% and the EC50 turned out to be 6.68 nM.

Regarding `CC(C)(C)Cc1nc2cc(S(=O)(=O)C(C)(C)C(=O)NCCO)ccc2n1CC1CC1` [Example 9, 2-{[1-(Cyclopropylmethyl)-2-(2,2-dimethylpropyl)-1H-benzimidazol-5-yl]sulfonyl}-N-(2-hydroxyethyl)-2-methylpropanamide], the Emax came to 127% and the midpoint of the response, the EC50, lay at 1.13 nM.

`CC(C)(C)Cc1nc2cc(S(=O)(=O)C(C)(C)C(=O)NCC(N)=O)ccc2n1CC1CC1` [Example 10] registered an Emax of 109% and an EC50 of 3.64 nM.

`CC(C)(C)Cc1nc2cc(S(=O)(=O)C(C)(C)C(=O)NCCN)ccc2n1CC1CC1` [Example 11] registered an Emax of 117% and an EC50 of 13.7 nM.

The compound `CC(C)(C)c1nc2cc(S(=O)(=O)C(C)(C)C(N)=O)ccc2n1CC1(O)CCCC1` [Example 12, 2-({2-tert-Butyl-1-[(1-hydroxycyclopentyl)methyl]-1H-benzimidazol-5-yl}sulfonyl)-2-methylpropanamide] showed an Emax of 133% and an EC50 of 5.34 nM.

On to `CC(=O)NCC(C)(C)S(=O)(=O)c1ccc2c(c1)nc(CC(C)(C)C)n2CC1CC1` [Example 13, N-(2-{[1-(Cyclopropylmethyl)-2-(2,2-dimethylpropyl)-1H-benzimidazol-5-yl]sulfonyl}-2-methylpropyl)acetamide], for which the Emax was 113% and the response was half-maximal at 5.24 nM (EC50).

For the compound `CC(C)(C)Cc1nc2cc(S(=O)(=O)C(C)(C)CNS(C)(=O)=O)ccc2n1CC1CC1` [Example 14, N-(2-{[1-(Cyclopropylmethyl)-2-(2,2-dimethylpropyl)-1H-benzimidazol-5-yl]sulfonyl}-2-methylpropyl)methanesulfonamide], the Emax turned out to be 120% and it took 1.59 nM to reach a half-maximal effect (EC50).

Regarding `CN(C)C(=O)NCC(C)(C)S(=O)(=O)c1ccc2c(c1)nc(CC(C)(C)C)n2CC1CC1` [Example 15, N′-(2-{[1-(Cyclopropylmethyl)-2-(2,2-dimethylpropyl)-1H-benzimidazol-5-yl]sulfonyl}-2-methylpropyl)-N,N-dimethylurea], the Emax was 113% and the EC50 worked out at 8.31 nM.

`CNC(=O)NCC(C)(C)S(=O)(=O)c1ccc2c(c1)nc(CC(C)(C)C)n2CC1CC1` [Example 16, N-(2-{[1-(Cyclopropylmethyl)-2-(2,2-dimethylpropyl)-1H-benzimidazol-5-yl]sulfonyl}-2-methylpropyl)-N′-methylurea]: the Emax stood at 109% and the EC50 turned out to be 1.22 nM.

In turn, `CC(C)(C)Cc1nc2cc(S(=O)(=O)C(C)(C)CNC(N)=O)ccc2n1CC1CC1` [Example 17, N-(2-{[1-(Cyclopropylmethyl)-2-(2,2-dimethylpropyl)-1H-benzimidazol-5-yl]sulfonyl}-2-methylpropyl)urea] showed an Emax of 120% and an EC50 of 1.98 nM.

Compound `CC(C)(C)Cc1nc2cc(S(=O)(=O)CC(C)(C)NC(N)=O)ccc2n1CC1CC1` [Example 18, N-(2-{[1-(Cyclopropylmethyl)-2-(2,2-dimethylpropyl)-1H-benzimidazol-5-yl]sulfonyl}-1,1-dimethylethyl)urea] gave an Emax of 109% and an EC50 of 26.4 nM.

Compound `CC(=O)NC(C)(C)CS(=O)(=O)c1ccc2c(c1)nc(CC(C)(C)C)n2CC1CC1` [Example 19, N-(2-{[1-(Cyclopropylmethyl)-2-(2,2-dimethylpropyl)-1H-benzimidazol-5-yl]sulfonyl}-1,1-dimethylethyl)acetamide] showed an Emax of 110% and an EC50 of 3.77 nM.

The term Emax denotes the size of the effect at its maximum, as opposed to the concentration needed. One may read the EC50 as the concentration that produces a half-maximal response. Read a low EC50 as higher potency in that assay.
